Measurements taken from patent publication US11013232B2, “Hydrotesting and mothballing composition and method of using combination products for multifunctional water treatment” (priority 2014, dated 2021).

Tested on: 5 species of bacteria in a simulated marine environment
Assay: Molecular technique biocidal properties (qPCR of 16s rDNA)
Type: cell-based
Conditions: for 7 day DNA (copies) / 14 day DNA (copies) / 21 day DNA (copies): dose rate 500 ppm
Description: Molecular techniques were performed on the best performing (Formulation 3) commercial product and the embodiments of the invention Formulation 1 and Formulation 2. This aim of the study was to investigate the efficiency of the biocides on inhibiting 5 species of bacteria in a simulated marine environment. This study was conducted over a 21 day period and involved several marine species of bacteria which have all been previously linked with attributing to corrosion. […] A control was used in the testing and glutaraldehyde was selected for this role.
For each species 3 individual inoculums for each replicate were grown from an isolated single colony picked from agar plates. The species used were Desulfovibrio desulfricans (SRB), Shewanella putrefaciens (IRB), Thiobacillus thioparus (SOB), Pseudomonas aeruginosa (biofilm) and Methanolibacter arachidis (methanogens). Following 24 hours of incubation on an orbital shaker, cells were centrifuged and the pelleted cells washed with phosphate buffered saline (PBS). Washed cells were then suspended in PBS and measured to a set optical density via UV spectrometry at 600 nm. Each species was then used to inoculate cultures to give a final starter concentration of 0.01 at 600 nm. Each treatment was conducted in triplicate with each replicate being started at alternative time periods to reduce culture bias and human error. Three negative controls and three positive controls were established for each temperature under study.
The trials were conducted in 125 mL Erlenmeyer flasks containing 75 mL of marine broth, which were subsequently autoclaved for 20 min at 121° C. All bottles were incubated at either 4° C. or 25° C. on an orbital shaking platform at 150 rpm. Triplicate biocide treatments were established at each temperature at concentrations of 500, 750 and 1000 ppm. At each weekly interval, 2 mL samples were collected at 7, 14 and 21 days from each bottle. These were subjected to a co-extraction of DNA which was measured with qPCR. The gene target in this study was 16s rDNA a conserved gene present in all bacteria and Achaea.

O=CCCCC=O [Glutaraldehyde, Pentane-1,5-dial] was tested, and the “fold increase in growth compared to the highest level seen in the other biocides” value (4° C., 500 ppm) was 15.8 fold, the “fold increase in copy number compared to the highest count in the invention formulation biocide flasks” value (25° C., 500 ppm) was 670 fold and the “7 day DNA (copies)” value (4° C.) was 2.60E+04 copies. The “14 day DNA (copies)” value (4° C.) was 1.11E+08 copies, the “21 day DNA (copies)” value (4° C.) was 7.22E+07 copies and the “7 day DNA (copies)” value (25° C.) was 8.85E+04 copies. The “14 day DNA (copies)” value (25° C.) was 1.00E+03 copies and the “21 day DNA (copies)” value (25° C.) was 2.51E+10 copies.
